The test system of assay [1] is BEAS-2B. The assay can be described thus: Alamar Blue cytotoxicity test, BEAS-2B. The assay is classed as cell-based, Human. The following applies: Homo sapiens, 24 h, 24 h incubation, read-out: IC50 values for BEAS-2B line. As to the method:
The cytotoxicity of the tested chemical compounds MJ1–MJ20 was tested using the Alamar Blue test. The experiment was conducted on cell lines BEAS-2B (Figure 7), HCT116 (Figure 8), U2OS (Figure 9), MCF7 (Figure 10), SH-SY5Y (Figure 11), NHDF (Figure 12), and A549 (Figure 13). Cells were seeded in 96-well plates and incubated with the tested compounds for 24 h. The test result is the IC50 parameter, which is a measure of cytotoxic activity expressed by the concentration of the substance that causes the death of half of the analyzed cells compared to the control.
In cytotoxicity studies, the Alamar Blue test was used, which is based on the ability of living cells to reduce the non-fluorescent dye resazurin to fluorescent resorufin, which reflects the metabolic activity of cells. BEAS-2B, NHDF, HCT116, MCF7, A549, SH-SY5Y and U2OS cell lines were cultured under standard conditions, in DMEM medium supplemented with 10% FBS and 1% penicillin/streptomycin, at 37 °C, 5% CO2 and 95% humidity. Cells were seeded in 96-well plates at 1 × 10^4 cells per well and incubated for 24 h. Then, the tested compounds (MJ1–MJ20) were added at different concentrations (from 6.25 µM to 100 µM). The control contained cells untreated with the tested compounds. After 24 h of incubation, 10 µL of Alamar Blue solution was added to each well and incubated for another 2–4 h under the same conditions. The signal was measured spectrophotometrically at wavelengths of 570 nm (for resorufin) and 600 nm (for resazurin) or optionally fluorimetrically, using an excitation maximum of 570 nm and an emission maximum of 585 nm. The results were presented as percentage of cell survival relative to the control, calculating the ratio of absorbance or fluorescence of the sample to the control value. The Alamar Blue assay, due to its sensitivity and non-toxicity, allows for an accurate assessment of metabolic activity and cell survival in response to the tested quinobenzothiazines.

Assay [2] deals with BCL2 gene. The assay is described as follows: RT-qPCR BCL2 gene expression in BEAS-2B. Type of assay: cell-based, Human. The conditions noted are these: Homo sapiens, 24 h, reference gene RPL41, vs untreated control, read-out: Relative level of expression, BCL2 gene. The method, then:
(§1) Real-time polymerase chain reaction was performed for the reference gene RPL41 (ribosomal protein L41) and the tested genes: BCL2, AIFM2, MDM2, IL6 and IL8. […] The BEAS-2B line was selected for the experiment. The expression level of selected genes was measured after 24 h of incubation with the tested substances MJ1–MJ20 at a concentration of 100 μM (Table 3).
The RT-qPCR experiment was performed for the BEAS-2B cell line. In this experiment, the BCL2 gene was studied, and RPL41 was used as the reference gene (Figure 14).
(§2) Gene expression studies used quantitative RT-qPCR to assess the effect of the tested quinobenzothiazines (MJ1–MJ20) on the expression of apoptosis-related genes (BCL2, AIFM2, MDM2) and pro-inflammatory cytokines (IL6, IL8) (Table 4).
(§3) BEAS-2B and HCT116 cells were seeded in 6-well plates at 2 × 10^5 cells per well and cultured in RPMI-1640 (BEAS-2B) or DMEM (HCT116) medium supplemented with 10% FBS and 1% penicillin/streptomycin at 37 °C, 5% CO2 and 95% humidity. After 24 h of incubation, the tested compounds were added at a concentration of 100 µM. After 24 h, the medium was removed from the cells, washed with PBS solution, 0.5 mL of trypsin was added per well and after 5 min it was neutralized with medium. The obtained cell suspension was centrifuged for 3 min at 2000 rpm, the supernatant was removed, and the obtained pellet was suspended in 400 µL of phenozol. Samples were frozen at −20 °C and stored until further experiment and RNA isolation.
(§4) Total RNA was isolated from cells using the A&A Biotechnology Total RNA Mini kit according to the manufacturer’s protocol. RNA quality and quantity were assessed using a NanoDrop 2000 spectrophotometer at 260/280 nm. Reverse transcription was performed using the protocol (EURx NG dART RT Kit) to obtain cDNA. After incubation, samples were placed in a freezer (−20 °C) and stored until further analysis.
(§5) The experiment was performed according to the protocol (Brilliant III Ultra Fast SYBR® Green QPCR Master Mix, Quick Reference Guide for the Bio-Rad CFX96 Real-Time PCR Detection System). RT-qPCR reaction was performed using specific primers for target genes (BCL2, AIFM2, MDM2, IL6, IL8). Gene expression was normalized to the expression of the reference gene RPL41. Reaction profiles and results were performed using Bio-Rad CFX Maestro 1.1 software from Bio-Rad. Analysis and calculations of the results obtained during RT-qPCR were performed using Microsoft Excel.
(§6) The results were analyzed using the R = 2^−ΔΔCt method, which allows for determining the relative level of gene expression (R) compared to the control. Each experiment was performed in three technical and biological replicates. RT-qPCR allowed for precise assessment of changes in the expression of genes related to the processes of apoptosis and inflammatory response under the influence of quinobenzothiazines, which allowed for identifying their potential mechanisms of action at the molecular level.

For assay [3], the system named is MDM2 gene. The assay can be described thus: RT-qPCR MDM2 gene expression in BEAS-2B. The assay is classed as cell-based, Human. The following applies: Homo sapiens, 24 h, reference gene RPL41, vs untreated control, read-out: Relative level of expression, MDM2 gene. The method, then: as §1
The RT-qPCR experiment was performed for the BEAS-2B cell line. In this experiment, the MDM2 gene was studied and RPL41 was used as reference gene (Figure 15).
as §2, §3, §4, §5, §6
(In qPCR the cycle at which signal appears reflects the starting amount.)

Assay [4] has as its system AIFM2 gene. The assay is described as follows: RT-qPCR AIFM2 gene expression in BEAS-2B. Type of assay: cell-based, Human. The conditions noted are these: Homo sapiens, 24 h, reference gene RPL41, vs untreated control, read-out: Relative level of expression, AIFM2 gene. As to the method:
as §1
The RT-qPCR experiment was performed for the BEAS-2B cell line. In this experiment, the AIFM2 gene was studied and RPL41 was used as reference gene (Figure 16).
as §2, §3, §4, §5, §6

For assay [5], the system named is IL6 gene. The assay is described as follows: RT-qPCR IL6 gene expression in BEAS-2B. The assay is classed as cell-based, Human. The following applies: Homo sapiens, 24 h, reference gene RPL41, vs untreated control, read-out: Relative level of expression, IL6 gene. As to the method: as §1
(§7) The RT-qPCR experiment was performed for the BEAS-2B cell line. In this experiment, the IL6 and IL8 genes were studied and RPL41 was used as a reference gene (Figure 17 and Figure 18).
as §2, §3, §4, §5, §6

Assay [6] relates to IL8 gene. The assay can be described thus: RT-qPCR IL8 gene expression in BEAS-2B. The assay is classed as cell-based. The conditions noted are these: Homo sapiens, 24 h, reference gene RPL41, vs untreated control, read-out: Relative level of expression, IL8 gene. As to the method: as §1, §7, §2, §3, §4, §5, §6

In PMC12295927, “Design, Synthesis, and Testing of 1,2,3-Triazolo-Quinobenzothiazine Hybrids for Cytotoxic and Immunomodulatory Activity” (International Journal of Molecular Sciences, 2025) one finds IC50 and fold induction data, which are given here for 8 molecules.

Broadly, the IC50 is the concentration needed to halve the response being measured. `c1ccc(Cn2cc(CN3c4ccccc4Sc4cc5ccccc5nc43)nn2)cc1` [MJ1]: the IC50 in assay [1] was determined as 73.8 µM. In addition, the fold induction at 100 µM in assay [2] came out at 23; in assay [3], 5.4; in assay [4], 2.4; in assay [5] it was 3; in assay [6], 0.3.

In the case of `Clc1ccc(Cn2cc(CN3c4ccccc4Sc4cc5ccccc5nc43)nn2)cc1` [MJ3, 6-[(1-(4-Chlorobenzyl)-1H-1,2,3-triazol-4-yl)methyl]-quino[3,2-b]benzo[1,4]thiazine], the IC50 in assay [1] came out at 75.4 µM. The fold induction at 100 µM in assay [2] was 5.7; in assay [3], 5.9; in assay [4], 1.3; in assay [5], 1.3; in assay [6], 0.3.

`N#Cc1ccc(Cn2cc(CN3c4ccccc4Sc4cc5ccccc5nc43)nn2)cc1` [MJ4, 4-((4-((Quino[3,2-b]benzo[1,4]thiazin-6-yl)methyl)-1H-1,2,3-triazol-1-yl)methyl)benzonitrile]: in assay [1], the IC50 was found to be 64.5 µM. The fold induction at 100 µM in assay [2] came to 9.3; in assay [3] it was 4.3; in assay [4] it was 1.4; in assay [5], 3.1; in assay [6], 0.8.

Turning to `c1ccc(SCn2cc(CN3c4ccccc4Sc4cc5ccccc5nc43)nn2)cc1` [MJ5, 6-((1-((Phenylthio)methyl)-1H-1,2,3-triazol-4-yl)methyl)-quino[3,2-b]benzo[1,4]thiazine], the IC50 in assay [1] is 73 µM. Further, the fold induction at 100 µM in assay [2] stood at 5; in assay [3], 4.8; in assay [4], 1.9; in assay [5], 2.7; in assay [6] it was 0.1.

Regarding `Fc1ccc2c(c1)Sc1cc3ccccc3nc1N2Cc1cn(Cc2ccccc2)nn1` [MJ6, 9-Fluoro-6-[(1-benzyl-1H-1,2,3-triazol-4-yl)-methyl]-quino[3,2-b]benzo[1,4]thiazine], in assay [1], the IC50 turned out to be 72.9 µM. Further, the fold induction at 100 µM in assay [2] is 8.5; in assay [3] it was 5.1; in assay [4], 1.8; in assay [5], 3.2; in assay [6], 0.1.

Consider `Fc1ccc(Cn2cc(CN3c4ccc(F)cc4Sc4cc5ccccc5nc43)nn2)cc1` [MJ7, 9-Fluoro-6-((1-(4-fluorobenzyl)-1H-1,2,3-triazol-4-yl)methyl)-quino[3,2-b]benzo[1,4]thiazine], for which the IC50 in assay [1] came to 73.6 µM. Also, the fold induction at 100 µM in assay [2] turned out to be 7.5; in assay [3], 4.6; in assay [4], 3.3; in assay [5], 3.5; in assay [6] it was 2.6.

In the case of `N#Cc1ccc(Cn2cc(CN3c4ccc(F)cc4Sc4cc5ccccc5nc43)nn2)cc1` [MJ9, 4-((4-((9-Fluoroquino [3,2-b]benzo[1,4]thiazin-6-yl)methyl)-1H-1,2,3-triazol-1-yl)methyl)-benzonitrile], the IC50 in assay [1] was 73 µM. The fold induction at 100 µM in assay [2] worked out at 9.8; in assay [3] it was 5.6; in assay [4] it was 4.5; in assay [5] it was 4.3; in assay [6], 0.9.

In the case of `Fc1ccc2c(c1)Sc1cc3ccccc3nc1N2Cc1cn(CSc2ccccc2)nn1` [MJ10, 9-Fluoro-6-((1-((phenylthio)methyl)-1H-1,2,3-triazol-4-yl)methyl)-quino[3,2-b]-benzo[1,4]thiazine], the IC50 in assay [1] came out at 72.3 µM. Also, the fold induction at 100 µM in assay [2] came out at 10.6; in assay [3], 3.6; in assay [4], 3.1; in assay [5], 5.6; in assay [6], 5.7.
